2 molecules from ChEMBL document CHEMBL1124452, “New sensitizers for photodynamic therapy: controlled synthesis of purpurins and their effect on normal tissue” (1989) can be followed below.

The assay relates to Rattus norvegicus. Description: In vivo cytotoxicity to the FANFT-induced urothelial cell carcinoma transplanted onto Fischer CDF (F344/CrlBR) rats (Tumoricidal activity). It counts as functional.

`CCOC(=O)C1=Cc2c3nc(cc4nc(cc5[nH]c(cc6[nH]c2c(C)c6CC)c(C)c5CC)C(C)=C4CC)C(C)C13CC` (configuration not stated) [ETIOPURPURIN] had a Therapeutic dose of 2.5 mg/kg.
For `CCOC(=O)C1=Cc2c3nc(cc4nc(cc5[nH]c(cc6[nH]c2c(CC)c6CC)c(CC)c5CC)C(CC)=C4CC)C(CC)C13CC` (configuration not stated) [OCTAETHYLPURPURIN] the value was 5 mg/kg.
